Measured values reported in patent publication US20260083865A1, “PROSTATE SPECIFIC MEMBRANE ANTIGEN (PSMA) LIGANDS AND USE THEREOF” (priority 2022, published 2026).
Read-outs that look alike come from different tables or passages of the source. Numbered stars: 1 amine (or outer) side, 2 acyl side, 3 side chain; on linkers, the order of the positions; unused ones are H or OH. Bridge positions count the residues as written; N and C are the ends. Square brackets hold non-standard residues; d marks the D form. Peptide text beside a SMILES is read from it. * marks the point of attachment. DOTA = O=C(O)CN1CCN(CC(=O)O)CCN(CC(=O)*)CCN(CC(=O)O)CC1; Phe(4-Cl) = N[C@@H](Cc1ccc(Cl)cc1)C(=O)O; Arg(Me) = CNC(=N)NCCC[C@H](N)C(=O)O; Ethylenediamine = C(CN[*:2])N[*:1]; X1 = O=C(CC1CCN([*:1])CC1)[*:2]; Lys(Me) = CNCCCC[C@H](N)C(=O)O; Tle = CC(C)(C)[C@H](N)C(=O)O; Aib = CC(C)(N)C(=O)O

Key:
recombinant human PSMA = target: T1, recombinant human PSMA (Homo sapiens, UniProt Q04609); test: Enzyme inhibition assay (GCPII Inhibitor Screening Kit, fluorescence-based); type: biochemical; conditions: carboxypeptidase activity of recombinant human PSMA; highest final concentration 1 μM
T1 construct: purchased BioVision K440-100
T1 sequence (Q04609 whole entry): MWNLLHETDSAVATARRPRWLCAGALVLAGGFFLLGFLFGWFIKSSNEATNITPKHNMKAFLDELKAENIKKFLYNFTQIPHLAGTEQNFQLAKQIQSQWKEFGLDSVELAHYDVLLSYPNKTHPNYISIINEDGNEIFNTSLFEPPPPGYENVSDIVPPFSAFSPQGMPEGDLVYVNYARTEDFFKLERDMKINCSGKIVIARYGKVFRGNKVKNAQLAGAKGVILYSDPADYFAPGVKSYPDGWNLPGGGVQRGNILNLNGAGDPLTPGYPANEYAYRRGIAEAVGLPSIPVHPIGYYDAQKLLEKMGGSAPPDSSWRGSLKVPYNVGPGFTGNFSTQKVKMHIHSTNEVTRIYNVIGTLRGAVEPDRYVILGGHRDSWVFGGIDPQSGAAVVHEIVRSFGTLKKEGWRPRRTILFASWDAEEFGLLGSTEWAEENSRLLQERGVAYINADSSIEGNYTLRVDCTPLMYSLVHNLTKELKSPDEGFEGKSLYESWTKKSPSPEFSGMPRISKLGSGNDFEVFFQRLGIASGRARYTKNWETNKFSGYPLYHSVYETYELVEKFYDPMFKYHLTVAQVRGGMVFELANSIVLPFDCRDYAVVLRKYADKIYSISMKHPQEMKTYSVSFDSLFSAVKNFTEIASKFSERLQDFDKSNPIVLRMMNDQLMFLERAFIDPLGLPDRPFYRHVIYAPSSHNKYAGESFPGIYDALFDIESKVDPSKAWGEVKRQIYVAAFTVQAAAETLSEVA
Description: This peptidase activity hydrolyzes γ-peptide bonds between N-acetyl amino acid and glutamate of its substrate.
The carboxypeptidase inhibition of recombinant human PSMA by test compounds was assessed using a commercial fluorescence-based PSMA activity inhibition assay.
The employed Glutamate Carboxypeptidase II (GCPII) Inhibitor Screening Kit (BioVision, Cat #K440-100) is a fluorescence-based, enzymatic in vitro assay to measure the potency of PSMA inhibitors. The provided substrate is […] in the presence of PSMA producing glutamate. The detection system is based on an enzymatic reaction in which a fluorogenic probe is reduced, generating a stable signal.
For the assay, recombinant human PSMA was diluted in GCPII Assay Buffer as recommended in the assay protocol. Serial dilutions of the test compounds were prepared, starting from 10 μM (final reaction concentration of 1 μM). In a 96-well assay plate, 40 μL of the PSMA working solution was mixed with 30 μL of GCPII Assay Buffer. Next, 10 μL of the serially diluted test compounds were added. The mixture was incubated for 20 min at 37° C. Subsequently, 20 μL of a reaction mix solution was added. The fluorescence signal increased due to fluorophore reduction, which is directly proportional to the produced amount of glutamate, was measured in kinetic mode for 90 minutes at 37° C. in a SpectraMax M5 plate reader. RFU/see was assessed by the SoftMax Pro software and plotted against peptide concentrations. Four-parameter logistic (4PL) curve fitting and pIC50 calculations were performed using the GraphPad Prism software.

[1] = target: T2, Fc-fusion protein of human PSMA (hPSMA-Fc) (Homo sapiens, UniProt Q04609); test: Surface plasmon resonance assay (Biacore T200, single cycle kinetic); type: binding; conditions: hPSMA-Fc, 25° C., read-out: pKD CAT (converted)
T2 construct: purchased Acro Biosystems PSA-H5264
T2 sequence (Q04609 44-750 limits assumed): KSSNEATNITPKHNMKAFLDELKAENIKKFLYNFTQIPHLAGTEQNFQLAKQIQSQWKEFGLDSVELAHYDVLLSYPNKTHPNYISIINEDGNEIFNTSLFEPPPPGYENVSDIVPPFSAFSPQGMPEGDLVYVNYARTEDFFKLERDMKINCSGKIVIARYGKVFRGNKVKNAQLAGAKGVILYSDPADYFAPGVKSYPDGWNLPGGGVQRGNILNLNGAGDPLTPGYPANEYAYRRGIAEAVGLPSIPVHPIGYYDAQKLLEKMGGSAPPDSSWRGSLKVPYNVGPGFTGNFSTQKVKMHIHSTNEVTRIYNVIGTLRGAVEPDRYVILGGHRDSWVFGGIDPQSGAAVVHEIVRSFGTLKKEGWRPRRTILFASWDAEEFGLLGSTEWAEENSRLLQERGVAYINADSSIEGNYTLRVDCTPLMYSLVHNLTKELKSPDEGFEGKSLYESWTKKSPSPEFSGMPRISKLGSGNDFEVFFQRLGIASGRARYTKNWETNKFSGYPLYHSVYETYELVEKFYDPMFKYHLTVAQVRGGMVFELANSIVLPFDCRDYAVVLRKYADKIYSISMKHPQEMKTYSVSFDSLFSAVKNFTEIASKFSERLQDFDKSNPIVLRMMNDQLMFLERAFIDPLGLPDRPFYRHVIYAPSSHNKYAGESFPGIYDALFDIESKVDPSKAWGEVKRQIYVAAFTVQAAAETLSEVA
Summary of the method: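 hPSMA-Fc was captured (~1000 RU) on an Fc-binding-peptide CM5 chip, and compounds were run in single cycle kinetic mode at 25° C in HBST with 0.1% DMSO. Double-blank-corrected sensorgrams were fitted to a 1:1 Langmuir model to give KD, reported as pKD.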

[2] = target: T3, PSMA-expressing C4-2 cells (Homo sapiens, UniProt Q04609); test: FACS binding assay (competition with 50 nM PSM-0183); conditions: C4-2 cells, read-out: pIC50 [C4-2] CAT (converted)
T3 construct: PSMA-expressing C4-2 cells (ATCC, Cat. No. CRL-3314) were cultured in RPMI-1640; host or cells: C4-2 cells
T3 sequence (Q04609 whole entry): as the sequence (Q04609 whole entry) above
Summary of the method: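 C4-2 cells were incubated 1 h at 4 °C with 50 nM AF488-labelled peptide PSM-0183 plus increasing test compound concentrations, then washed twice in ice-cold buffer. Median fluorescence in the AF488 channel was read by flow cytometry. IC50/pIC50 was derived by 4PL fitting of MFI versus concentration.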

PC3-PIP tumor model = test system: PC3-PIP tumor model; parameters: species or system mice; conditions: mouse, in vivo
Summary of the method: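 Male nude mice bearing shoulder xenografts (5×10^6 PC3-PIP cells, or 5×10^6 or 1×10^7 C4-2 cells) received ~30 MBq of ^111In-labeled compound intravenously via tail vein. SPECT/CT regions of interest for heart, kidney and tumor gave % ID/g, mean of two to three animals per time point, range as error.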

[3] = SPR, single cycle kinetic, category
[4] = FACS binding, competition with 50 nM PSM-0183, category
[5] = pKD category for PSMA SPR activity assay

| Compound | IC50 (recombinant human PSMA) | Kd [1, 3] | IC50 [2, 4] | AUC ratio [T/K] (PC3-PIP tumor model) | Tumor AUC (PC3-PIP tumor model) | Kd [1, 5] | IC50 ([2]; pIC50 category of FACS binding) |
| --- | --- | --- | --- | --- | --- | --- | --- |
| CC(=O)NC(C)(C)C(=O)N[C@@H](Cc1ccc(Cl)cc1)C(=O)N[C@H]1CSSC[C@@H](C(=O)N[C@H](C(N)=O)C(C)(C)C)NC(=O)[C@H](CC(N)=O)NC(=O)C(C)(C)NC(=O)[C@H](CCCNC(=N)N)NC(=O)[C@H](CCCCN)NC1=O [PSM-0424, Ac-Aib-Pcf-[Cys-Lys-Arg-Aib-Asn-Cys]-Tle-NH2] (Ac-[Aib][Phe(4-Cl)]CKR[Aib]NC[Tle]-NH2; disulfide 3-8) | > 1 µM |  |  |  |  | < 0.0126 µM | < 0.2 µM |
| C[C@@H](O)[C@H](NC(=O)[C@@H](NC(=O)[C@@H]1CSSC[C@H](NC(=O)[C@H](Cc2ccc(Cl)cc2)NC(=O)C(C)(C)NC(=O)[C@@H](NC(=O)CC2CCN(C(=O)CN3CCN(CC(=O)O)CCN(CC(=O)O)CCN(CC(=O)O)CC3)CC2)[C@@H](C)O)C(=O)N[C@@H](CCCCN)C(=O)N[C@@H](CCCNC(=N)N)C(=O)N[C@@H](CCC(=O)O)C(=O)N[C@@H](CC(N)=O)C(=O)N1)C(C)(C)C)C(N)=O [PSM-0416, DOTA-Cmp-Thr-Aib-Pcf-[Cys-Lys-Arg-Glu-Asn-Cys]-Tle-Thr-NH2] ({DOTA}-[X1]T[Aib][Phe(4-Cl)]CKRENC[Tle]T-NH2; disulfide 5-10) | > 1 µM |  |  | 1.6 | 170 % ID/g*h | < 0.0126 µM | < 0.2 µM |
| C[C@@H](O)[C@H](NC(=O)CC1CCN(C(=O)CN2CCN(CC(=O)O)CCN(CC(=O)O)CCN(CC(=O)O)CC2)CC1)C(=O)NC(C)(C)C(=O)N[C@@H](Cc1ccccc1)C(=O)N[C@H]1CSSC[C@@H](C(=O)N[C@H](C(=O)NCCN)C(C)(C)C)NC(=O)[C@H](CC(N)=O)NC(=O)C(C)(C)NC(=O)[C@H](CCCNC(=N)N)NC(=O)[C@H](CCCCN)NC1=O [PSM-0241, DOTA-Cmp-Thr-Aib-Phe-[Cys-Lys-Arg-Aib-Asn-Cys]-Tle-en] ({DOTA}-[X1]T[Aib]FCKR[Aib]NC[Tle]-Ethylenediamine; disulfide 5-10) |  | < 0.0126 µM | < 0.2 µM | 0.54 | 300 % ID/g*h |  |  |

The remaining lines, values ahead:

| IC50 (recombinant human PSMA) | Kd [1, 3] | IC50 [2, 4] | AUC ratio [T/K] (PC3-PIP tumor model) | Tumor AUC (PC3-PIP tumor model) | Kd [1, 5] | IC50 ([2]; pIC50 category of FACS binding) | Compound |
| --- | --- | --- | --- | --- | --- | --- | --- |
| > 1 µM | < 0.0126 µM | < 0.2 µM | 6.7 | 180 % ID/g*h |  |  | CNCCCC[C@@H]1NC(=O)[C@@H](NC(=O)[C@H](Cc2ccc(Cl)cc2)NC(=O)C(C)(C)NC(=O)[C@@H](NC(=O)CC2CCN(C(=O)CN3CCN(CC(=O)O)CCN(CC(=O)O)CCN(CC(=O)O)CC3)CC2)[C@@H](C)O)CSSC[C@@H](C(=O)N[C@H](C(=O)N[C@H](C(N)=O)[C@@H](C)O)C(C)(C)C)NC(=O)[C@H](CC(N)=O)NC(=O)C(C)(C)NC(=O)[C@H](CCCNC(=N)NC)NC1=O [PSM-0194, DOTA-Cmp-Thr-Aib-Pcf-[Cys-Lys(Me)-Arg(Me)-Aib-Asn-Cys]-Tle-Thr-NH2] ({DOTA}-[X1]T[Aib][Phe(4-Cl)]C[Lys(Me)][Arg(Me)][Aib]NC[Tle]T-NH2; disulfide 5-10) |
| > 1 µM |  |  | 1.4 | 250 % ID/g*h | < 0.0126 µM | < 0.2 µM | CC(=O)NC(C)(C)C(=O)N[C@@H](Cc1ccc(Cl)cc1)C(=O)N[C@H]1CSSC[C@@H](C(=O)N[C@H](C(=O)NCCNC(=O)CN2CCN(CC(=O)O)CCN(CC(=O)O)CCN(CC(=O)O)CC2)C(C)(C)C)NC(=O)[C@H](CC(N)=O)NC(=O)C(C)(C)NC(=O)[C@H](CCCNC(=N)N)NC(=O)[C@H](CCCCN)NC1=O [PSM-0516, Ac-Aib-Pcf-[Cys-Lys-Arg-Aib-Asn-Cys]-Tle-en-DOTA] (Ac-[Aib][Phe(4-Cl)]CKR[Aib]NC[Tle]-{Ethylenediamine-DOTA}; disulfide 3-8) |
| > 1 µM |  |  |  |  | < 0.0126 µM | < 0.2 µM | CC(=O)N[C@H](C(=O)NC(C)(C)C(=O)N[C@@H](Cc1ccccc1)C(=O)N[C@H]1CSSC[C@@H](C(=O)N[C@H](C(=O)N[C@H](C(=O)N[C@@H](CC(=O)O)C(N)=O)[C@@H](C)O)C(C)(C)C)NC(=O)[C@H](CC(N)=O)NC(=O)C(C)(C)NC(=O)[C@H](CCCNC(=N)N)NC(=O)[C@H](CCCCN)NC1=O)[C@@H](C)O [PSM-0374, Ac-Thr-Aib-Phe-[Cys-Lys-Arg-Aib-Asn-Cys]-Tle-Thr-Asp-NH2] (Ac-T[Aib]FCKR[Aib]NC[Tle]TD-NH2; disulfide 4-9) |
